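Growth conditions: 96-well plates. Treatment: test compound, 48 hours, 5 concentrations. Analysis: linear interpolation between bracketing concentrations; unreached endpoints set to highest concentration. At the GI50, growth is halved.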 Activity calls are given as the source filed them. Cut-off read from the data, not from the text of the source: active = GI50 up to about 1.1 µM and inactive = higher.
Assays:
Assay in all cases: DTP human tumour cell line panel, 48 h
[1] = system: NCI-H522
[2] = system: NCI-H226
[3] = system: SNB-19
[4] = system: SK-MEL-5
[5] = system: OVCAR-8
[6] = system: M14
[7] = system: SF-268
[8] = system: OVCAR-5
[9] = system: UACC-62
[10] = system: MDA-MB-231
[11] = system: HOP-62
[12] = system: UO-31
[13] = system: IGROV-1
[14] = system: DU-145
[15] = system: SNB-75
[16] = system: TK-10
[17] = system: KM12
[18] = system: COLO 205
[19] = system: UACC-257

Row | SMILES | GI50 [1] | GI50 [2] | GI50 [3] | GI50 [4] | GI50 [5] | GI50 [6] | GI50 [7] | GI50 [8] | GI50 [9] | GI50 [10] | GI50 [11] | GI50 [12] | GI50 [13] | GI50 [14] | GI50 [15] | GI50 [16] | GI50 [17] | GI50 [18] | GI50 [19]
1 | CC(C)(C)OC(=O)NCCCCC(N)NC(=O)c1ccccc1 (stereo unspecified) | > 100 µM (inactive) | > 100 µM (inactive) | > 100 µM (inactive) | > 100 µM (inactive) | > 100 µM (inactive) | > 100 µM (inactive) | > 100 µM (inactive) | > 100 µM (inactive) | > 100 µM (inactive) | > 100 µM (inactive) | > 100 µM (inactive) | > 100 µM (inactive) | > 100 µM (inactive) | > 100 µM (inactive) | > 100 µM (inactive) | > 100 µM (inactive) | > 100 µM (inactive) | > 100 µM (inactive) | > 100 µM (inactive)
2 | C/C=C/C=C\C1OC(O)([C@H](CC)C(=O)NC/C=C/C=C(\C)[C@H](OC)C(C)C2OC(\C=C/C=C/C=C(\C)C(=O)c3c(O)ccn(C)c3=O)[C@H](O)[C@@H]2O)C(O)C(O)C1(C)C (stereo partly specified) | > 100 µM (inactive) | > 100 µM (inactive) | > 100 µM (inactive) | 88.1 µM (inactive) | 82.8 µM (inactive) | > 100 µM (inactive) | > 100 µM (inactive) | > 100 µM (inactive) | 96.2 µM (inactive) | > 100 µM (inactive) | > 100 µM (inactive) | > 100 µM (inactive) | 82 µM (inactive) | > 100 µM (inactive) | > 100 µM (inactive) | > 100 µM (inactive) | > 100 µM (inactive) | > 100 µM (inactive) | > 100 µM (inactive)
3 | COC(=O)C1(Cc2ccc(C)cc2)Cc2c(C)cccc2C1=O (stereo unspecified) | 11.2 µM (inactive) | 15.3 µM (inactive) | 17.7 µM (inactive) | 12.9 µM (inactive) | 27.7 µM (inactive) | 16.6 µM (inactive) | 21.8 µM (inactive) | 24.6 µM (inactive) | 20.8 µM (inactive) | 31.1 µM (inactive) | 19.3 µM (inactive) | 24.7 µM (inactive) | 16.4 µM (inactive) | 15.3 µM (inactive) | 26.4 µM (inactive) | 26.2 µM (inactive) | 6.75 µM (inactive) | 12.1 µM (inactive) | 22.1 µM (inactive)
4 | O=c1c2cc(I)ccc2nc(Sc2ccc([N+](=O)[O-])cc2[N+](=O)[O-])n1Cc1ccccc1 | 1.04 µM (active) | 2.74 µM (inactive) | 6.65 µM (inactive) | 3.48 µM (inactive) | 1.6 µM (inactive) | 1.94 µM (inactive) | 1.6 µM (inactive) | 9.02 µM (inactive) | 2.29 µM (inactive) | 5.22 µM (inactive) | 2.93 µM (inactive) | 2.26 µM (inactive) | 2.02 µM (inactive) | 2.96 µM (inactive) | 3.91 µM (inactive) | 7.59 µM (inactive) | 3.32 µM (inactive) | 5.14 µM (inactive) | 4.65 µM (inactive)
5 | O=C1Nc2ccccc2/C1=N/N=C1NCCCCN1 | > 100 µM (inactive) | > 100 µM (inactive) | > 100 µM (inactive) | > 100 µM (inactive) | > 100 µM (inactive) | > 100 µM (inactive) | > 100 µM (inactive) | > 100 µM (inactive) | > 100 µM (inactive) | > 100 µM (inactive) | > 100 µM (inactive) | > 100 µM (inactive) | > 100 µM (inactive) | > 100 µM (inactive) | > 100 µM (inactive) | > 100 µM (inactive) | > 100 µM (inactive) | > 100 µM (inactive) | > 100 µM (inactive)
6 | O=C(CC(=O)N1N=C(N(c2ccccc2)c2ccccc2)CC1c1ccccc1)Nc1ccc(Cl)cc1 (stereo unspecified) | > 100 µM (inactive) | > 100 µM (inactive) | > 100 µM (inactive) | > 100 µM (inactive) | > 100 µM (inactive) | > 100 µM (inactive) | > 100 µM (inactive) | > 100 µM (inactive) | > 100 µM (inactive) | > 100 µM (inactive) | > 100 µM (inactive) | > 100 µM (inactive) | > 100 µM (inactive) | > 100 µM (inactive) | 94 µM (inactive) | > 100 µM (inactive) | > 100 µM (inactive) | > 100 µM (inactive) | > 100 µM (inactive)
7 | COc1cc2c3c(cc(Cl)nc3c1OC)C(O)(CC(=O)c1ccccc1)C(=O)N2 (stereo unspecified) | 2.89 µM (inactive) | 21.5 µM (inactive) | 17.7 µM (inactive) | 15.9 µM (inactive) | 14 µM (inactive) | 16.4 µM (inactive) | 4.94 µM (inactive) | 19.1 µM (inactive) | 6.18 µM (inactive) | 13.8 µM (inactive) | 19.2 µM (inactive) | 13.3 µM (inactive) | 13.2 µM (inactive) | 16.2 µM (inactive) | 14.8 µM (inactive) | 18.1 µM (inactive) | 17.3 µM (inactive) | 24.3 µM (inactive) | 8.15 µM (inactive)
8 | CCN(CCCl)c1cc(CN(C)C)cc(NC(=O)c2ccc(C(=O)Nc3cc(CN(C)C)cc(N(CC)CCCl)c3)cc2)c1 | 0.0231 µM (active) | 0.0697 µM (active) | 0.0873 µM (active) | 0.158 µM (active) | 0.224 µM (active) | 0.291 µM (active) | 0.0502 µM (active) | 0.24 µM (active) | 0.0736 µM (active) | 0.323 µM (active) | 0.133 µM (active) | 5.21 µM (inactive) | 0.135 µM (active) | 0.504 µM (active) | 0.114 µM (active) | 0.861 µM (active) | 0.234 µM (active) | 0.147 µM (active) | 0.356 µM (active)
9 | COc1ccc(C(=O)/C=C/c2ccc(OCC#N)cc2)cc1OC | 16.8 µM (inactive) | 19.5 µM (inactive) | 15.1 µM (inactive) | 18.3 µM (inactive) | 28 µM (inactive) | 16.4 µM (inactive) | 26.6 µM (inactive) | > 10 µM (inactive) | 16.7 µM (inactive) | 13.8 µM (inactive) | 15.5 µM (inactive) | 18 µM (inactive) | 30.5 µM (inactive) | 11.6 µM (inactive) | 3.72 µM (inactive) | 26.9 µM (inactive) | 5.33 µM (inactive) | 11.9 µM (inactive) | > 10 µM (inactive)
10 | C[C@H]1CC(=O)[C@@]2(O)C#C/C=C\C#C[C@@H]3Nc4c(cc(O)c5c4C(=O)c4ccccc4C5=O)[C@]24O[C@]314 | 0.0504 µM (active) | 0.00356 µM (active) | 0.0199 µM (active) | 0.00266 µM (active) | 0.0158 µM (active) | 0.00916 µM (active) | 0.00313 µM (active) | 0.0685 µM (active) | 0.00764 µM (active) | 0.0873 µM (active) | 0.00159 µM (active) | < 0.001 µM (active) | 0.16 µM (active) | 0.00189 µM (active) | 0.0316 µM (active) | 0.0574 µM (active) | 0.0927 µM (active) | 0.0568 µM (active) | 0.00231 µM (active)
11 | COc1cc2c(cc1OC)C(C1CC1)ON(C)CC2 (stereo unspecified) | > 100 µM (inactive) | > 100 µM (inactive) | > 100 µM (inactive) | > 100 µM (inactive) | > 100 µM (inactive) | > 100 µM (inactive) | > 100 µM (inactive) | > 100 µM (inactive) | > 100 µM (inactive) | > 100 µM (inactive) | > 100 µM (inactive) | > 100 µM (inactive) | > 100 µM (inactive) | > 100 µM (inactive) | > 100 µM (inactive) | > 100 µM (inactive) | > 100 µM (inactive) | > 100 µM (inactive) | > 100 µM (inactive)
12 | CN(CCNC(=O)c1c[nH]c2c1ccc1ccccc12)CCNC(=O)c1c[nH]c2c1ccc1ccccc12 | 1.89 µM (inactive) | 18.1 µM (inactive) | 2.23 µM (inactive) | 7.29 µM (inactive) | 1.93 µM (inactive) | 1.84 µM (inactive) | 3.1 µM (inactive) | 4.74 µM (inactive) | 1.75 µM (inactive) | 1.59 µM (inactive) | 2.36 µM (inactive) | 1.38 µM (inactive) | 1.41 µM (inactive) | 1.99 µM (inactive) | 1.52 µM (inactive) | 3.21 µM (inactive) | 1.66 µM (inactive) | 1.61 µM (inactive) | 1.79 µM (inactive)
13 | Cc1ccnc(NS(=O)(=O)c2ccc(NC(=O)c3ccc4nc5ccccc5c(Nc5ccc(S(=O)(=O)Nc6nccc(C)n6)cc5)c4c3)cc2)n1 | 39.4 µM (inactive) | > 100 µM (inactive) | 51.1 µM (inactive) | 27.7 µM (inactive) | > 100 µM (inactive) | > 100 µM (inactive) | 28.3 µM (inactive) | > 100 µM (inactive) | 38.3 µM (inactive) | 40.7 µM (inactive) | > 100 µM (inactive) | > 100 µM (inactive) | 63.1 µM (inactive) | > 100 µM (inactive) | 50.4 µM (inactive) | > 100 µM (inactive) | 29 µM (inactive) | > 100 µM (inactive) | > 100 µM (inactive)
14 | CC(=O)OC1CCC2(C)C(=CCC3C2CCC2(C)C(C(C)C(=O)O)CCC32)C1 (stereo unspecified) | 58.6 µM (inactive) | > 100 µM (inactive) | > 100 µM (inactive) | 70.6 µM (inactive) | > 100 µM (inactive) | > 100 µM (inactive) | > 100 µM (inactive) | > 100 µM (inactive) | > 100 µM (inactive) | > 100 µM (inactive) | > 100 µM (inactive) | 92 µM (inactive) | > 100 µM (inactive) | > 100 µM (inactive) | > 100 µM (inactive) | > 100 µM (inactive) | 84.7 µM (inactive) | 39.9 µM (inactive) | > 100 µM (inactive)

Reference: ChEMBL document CHEMBL1201862, “PubChem BioAssay data set” (2004)
